Legend:
GLP-1R [1] = target: T1, GLP-1R (Homo sapiens, UniProt P43220); assay: Tag-lite binding assay (competition with GLP-1 receptors red agonist); details: for IC50: HEK293 GLP-1 cells labeled with SNAP-Lumi4-Tb, red agonist 4.917 nM, 23° C., 2 h; for Ki: calculated from sample IC50 and red agonist Kd
Description: B. Tag-Lite Binding Assay
The cell line was constructed by WuXi.
10) Dispense cells into cell plate (1.8 M cells/well in 2 ml medium of 6-well plate, total 4 wells).
Second Day: Tag-Lite Binding Assay
3) The cell culture medium is removed from the 6-well plate and then 1 mL of Tag-lite SNAP-Lumi4-Tb diluted in Tag-lite labeling medium are added gently on the cells.
7) The testing compounds and reference compound are serially diluted with 3-fold, 10 points using Echo, then transfer 100 nL compounds to the assay plate.
8) Add the labeled cells to each well according to the plate map, 10000 cells/10 uL/well. Centrifuge the plate at 1000 rpm for 1 min.
9) Incubate the plate at 23° C., 30 min.
10) Add 50 nL of red agonist (final conc.: 4.917 nM) to destination plate using Echo.
11) Incubate the plate at 23° C. for 2 h.
12) Read the plate on an HTRF® compatible reader (at 665 nm and 620 nm).
% Inhibition=100%−(Ratio−LC)/(HC−LC)*100%
HC: The average ratio of adding DMSO wells
LC: The average ratio of adding the top concentration of reference compounds wells
b) The “log (inhibitor) vs. response—Variable slope” model in GraphPad Prism 5.0 was used to fit the dose-response curve of each sample. The sample concentration (x) and its corresponding % Inhibition data (y) were substituted into the model. The sample concentration (abscissa) was x=log(x) transformed. The transformed xy was used as the sample curve to obtain the IC50.
c) Calculate the sample Ki according to the sample IC50 and red agonist Kd. S in the formula is the actual used concentration of red agonist.

GLP-1R [2] = target: T1, GLP-1R; assay: GLP-1R agonist cAMP stimulation assay (HTRF cAMP); assay type: cell-based; details: HEK293 cell line expressing GLP-1 target; HTRF cAMP agonist mode, 30 min at RT
How it was run: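 Read-out was HTRF (665/615 ratio), interpolated onto a cAMP standard curve and normalised to DMSO (0%) and maximal GLP-1(7-37) reference (100%) wells. Assay: GLP-1R cells at 1.0×E5/mL incubated with compound dilution series (3-fold, 10 points) for 30 min at room temperature before 60 min detection.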

T1 sequence (P43220 24-463): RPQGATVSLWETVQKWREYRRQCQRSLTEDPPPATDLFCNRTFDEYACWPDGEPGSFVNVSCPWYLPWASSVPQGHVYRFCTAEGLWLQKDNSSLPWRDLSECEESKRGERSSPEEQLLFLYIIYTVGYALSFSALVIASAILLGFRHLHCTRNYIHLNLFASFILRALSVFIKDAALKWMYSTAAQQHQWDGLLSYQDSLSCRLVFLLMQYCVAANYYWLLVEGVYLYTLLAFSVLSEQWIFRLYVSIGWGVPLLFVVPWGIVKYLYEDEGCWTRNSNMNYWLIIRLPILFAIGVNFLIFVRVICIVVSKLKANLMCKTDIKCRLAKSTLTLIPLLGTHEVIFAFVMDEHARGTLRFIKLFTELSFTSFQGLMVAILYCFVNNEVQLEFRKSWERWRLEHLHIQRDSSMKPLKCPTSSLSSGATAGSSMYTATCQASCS

| SMILES | IC50 (GLP-1R [1]) [nM] | Ki (GLP-1R [1]) [nM] | EC50 (GLP-1R [2]) [nM] |
| --- | --- | --- | --- |
| Cc1n[nH]c2c(F)cc(C(=O)Nc3ccc4c(c3)nc(CN3CCC(c5cccc6c5OC(C)(c5ccc(Cl)cc5F)O6)CC3)n4CC3CCO3)cc12 (stereo not drawn) [Compound 340] | 123 | 88.5 | 0.28 |
| Cc1n[nH]c2c(C)cc(C(=O)Nc3ccc4c(c3)nc(CN3CCC(c5cccc6c5OC(C)(c5ccc(Cl)cc5F)O6)CC3)n4CC3CCO3)cc12 (stereo not drawn) [Compound 341] | 158 | 95.5 | 0.31 |
| Cc1n[nH]c2ccc(C(=O)Nc3ccc4c(c3)nc(CN3CCC(c5cccc6c5OC(C)(c5ccc(Cl)cc5F)O6)CC3)n4CC3CCO3)cc12 (stereo not drawn) [Compound 342] | 140 | 72.2 | 0.91 |
| Cc1n[nH]c2c(C)cc(NC(=O)c3ccc4c(c3)nc(CN3CC=C(c5cccc(OCc6ccc(C#N)c7cc(Cl)oc67)n5)CC3)n4C[C@@H]3CCO3)cc12 [Compound 354] | 2140 | 1060 | 0.21 |
| Cc1n[nH]c2c(C)cc(NC(=O)c3ccc4c(c3)nc(CN3CC=C(c5cccc6c5O[C@@](C)(c5ccc(Cl)cn5)O6)CC3)n4CC3CCO3)cc12 (stereo partly drawn) [Compound 382] | 689 | 342 | 0.1 |
| Cc1n[nH]c2c(C)cc(NC(=O)c3ccc4c(c3)nc(CN3CC=C(c5cccc6c5O[C@](C)(c5ccc(Cl)cn5)O6)CC3)n4CC3CCO3)cc12 (stereo partly drawn) [Compound 383] | 1480 | 899 | 1.92 |
| Cc1n[nH]c2c(C)cc(C(=O)Nc3ccc4c(c3)nc(CN3CC=C(c5cccc6c5O[C@@](C)(c5ccc(Cl)cc5F)O6)CC3)n4CC3CCO3)cc12 (stereo partly drawn) [Compound 384] | 110 | 68.3 | 0.08 |
| Cc1n[nH]c2c(C)cc(C(=O)Nc3ccc4c(c3)nc(CN3CC=C(c5cccc6c5O[C@](C)(c5ccc(Cl)cc5F)O6)CC3)n4CC3CCO3)cc12 (stereo partly drawn) [Compound 385] | 158 | 82.7 | 0.61 |
| Cc1n[nH]c2c(F)cc(C(=O)Nc3ccc4c(c3)nc(Cc3c(F)cc(-c5cccc6c5O[C@@](C)(c5ccc(Cl)cn5)O6)cc3F)n4CC3CCO3)cc12 (stereo partly drawn) [Compound 386] | 120 | 69.9 | 0.15 |
| Cc1n[nH]c2c(F)cc(C(=O)Nc3ccc4c(c3)nc(Cc3c(F)cc(-c5cccc6c5O[C@](C)(c5ccc(Cl)cn5)O6)cc3F)n4CC3CCO3)cc12 (stereo partly drawn) [Compound 387] | 346 | 205 | 0.86 |
| Cc1n[nH]c2ccc(C(=O)Nc3ccc4c(c3)nc(CN3CC=C(c5cccc(OCc6ccc(Cl)cn6)n5)CC3)n4C[C@@H]3CCO3)cc12 [Compound 391] | 116 | 70.3 | 0.91 |
| CCn1cncc1Cn1c(Cc2c(F)cc(-c3cccc(OCc4ccc(Cl)cn4)n3)cc2F)nc2cc(NC(=O)c3cc(F)c4[nH]nc(C)c4c3)ccc21 [Compound 407] | 180 | 110 | 0.16 |
| CCn1cncc1Cn1c(CN2CC=C(c3cccc(OCc4ccc(Cl)cc4F)n3)CC2)nc2cc(NC(=O)c3cc(F)c4[nH]nc(C)c4c3)ccc21 [Compound 408] | 106 | 68.4 | 0.21 |
| CCn1cncc1Cn1c(Cc2c(F)cc(-c3cccc4c3OC(C)(c3ccc(Cl)cn3)O4)cc2F)nc2cc(NC(=O)c3cc(F)c4[nH]nc(C)c4c3)ccc21 (stereo not drawn) [Compound 409] | 486 | 237 | 0.42 |
| CCn1cncc1Cn1c(Cc2c(F)cc(-c3cccc4c3O[C@@](C)(c3ccc(Cl)cn3)O4)cc2F)nc2cc(NC(=O)c3cc(F)c4[nH]nc(C)c4c3)ccc21 [Compound 411] | 120 | 72.6 | 0.33 |
| Cc1n[nH]c2c(F)cc(C(=O)Nc3ccc4c(c3)nc(Cc3cc(F)c(-c5cccc(OCc6ccc(Cl)cc6F)n5)cc3F)n4C[C@@H]3CCO3)cc12 [Compound 413] | 28 | 14.1 | 0.49 |
| CCn1cncc1Cn1c(Cc2cc(F)c(-c3cccc(OCc4ccc(Cl)cc4F)n3)cc2F)nc2cc(NC(=O)c3cc(F)c4[nH]nc(C)c4c3)ccc21 [Compound 414] | 31.7 | 15.6 | 0.57 |
| CCn1cncc1Cn1c(Cc2c(F)cc(-c3cccc(OCc4ccc(Cl)cc4F)n3)cc2F)nc2cc(NC(=O)c3cc(F)c4[nH]nc(C)c4c3)ccc21 [Compound 415] | 233 | 117 | 0.71 |
| Cc1n[nH]c2c(F)cc(C(=O)Nc3ccc4c(c3)nc(Cc3cc(F)c(-c5cccc(OCc6ccc(Cl)cc6F)n5)cc3CO)n4C[C@@H]3CCO3)cc12 [Compound 416] | 54.3 | 29.3 | 0.37 |
| Cc1n[nH]c2c(F)cc(C(=O)Nc3ccc4c(c3)nc(Cc3cc(F)c(-c5cccc(OCc6ccc(Cl)cc6F)n5)cc3F)n4C3COC[C@H]3O)cc12 (stereo partly drawn) [Compound 417] | 137 | 69.2 | 0.65 |

Reference: patent US20230271949A1, “GLP-1R MODULATING COMPOUNDS” (ASCLETIS BIOSCIENCE CO., LTD., priority 2022, published 2023)
